Data as given in US20090186929A1, “Method and agent for inducing apoptosis/cell death in leukemia cells” (U.S. DEPARTMENT OF VETERANS AFFAIRS, priority 2003, published 2009).
Where a name gives a salt, the structure may show the parent alone. Read-outs that look alike come from different tables or passages of the source.

Legend:
CLL cells [1] = test: Cytotoxicity of NOS inhibitors for CLL cells in vitro (MTS assay); details: for EC50: read-out: Mean ED50 ± S.E.M. (CLL cell cytotoxicity)
Text: We worked to optimize the culture of CLL cells (Reference 86). […] These were all tested with and without albumin, fetal bovine serum, human serum, glutamine, insulin, transferrin, selenium, and mercaptoethanol.
Toxicity could be detected by disappearance of cells from the culture (reduction in overall cell number), uptake of trypan blue, propidium iodide uptake (flow cytometry), MTS (4,5-dimethylthiazol-2-yl)-5-(3-carboxymethoxyphenyl)-2-(4-sulfophenyl)-2H-tetrazolium, inner salt) assay (cellular respiration), and several parameters of apoptosis [annexin V assay, DNA content […], and TUNEL assay].

[2] = tested on: freshly-isolated CLL cells; test: Exogenous NO donors and drugs on freshly-isolated CLL cells (apoptosis and death); type: cell-based, human; details: for NO / DETA-NO interaction with the agent's activity on CLL cells: combination of the agent with NO donor
Text: We next wanted to examine CLL cells. These malignant cells differ in many ways from ANLL and normal hematopoietic. In addition to their different lineage, they are unique in that they have a very low […], exist primary in the G0 phase of the cell cycle, and have defective apoptosis.

purified human NOS2 = target: T1, purified human NOS2 (Homo sapiens, UniProt P35228); test: Inhibition of purified NOS2 enzyme activity; type: biochemical; details: mean ± SEM, N = 3
T1 construct: determined using purified recombinant full-length human NOS1 and NOS2
T1 sequence (P35228 whole entry): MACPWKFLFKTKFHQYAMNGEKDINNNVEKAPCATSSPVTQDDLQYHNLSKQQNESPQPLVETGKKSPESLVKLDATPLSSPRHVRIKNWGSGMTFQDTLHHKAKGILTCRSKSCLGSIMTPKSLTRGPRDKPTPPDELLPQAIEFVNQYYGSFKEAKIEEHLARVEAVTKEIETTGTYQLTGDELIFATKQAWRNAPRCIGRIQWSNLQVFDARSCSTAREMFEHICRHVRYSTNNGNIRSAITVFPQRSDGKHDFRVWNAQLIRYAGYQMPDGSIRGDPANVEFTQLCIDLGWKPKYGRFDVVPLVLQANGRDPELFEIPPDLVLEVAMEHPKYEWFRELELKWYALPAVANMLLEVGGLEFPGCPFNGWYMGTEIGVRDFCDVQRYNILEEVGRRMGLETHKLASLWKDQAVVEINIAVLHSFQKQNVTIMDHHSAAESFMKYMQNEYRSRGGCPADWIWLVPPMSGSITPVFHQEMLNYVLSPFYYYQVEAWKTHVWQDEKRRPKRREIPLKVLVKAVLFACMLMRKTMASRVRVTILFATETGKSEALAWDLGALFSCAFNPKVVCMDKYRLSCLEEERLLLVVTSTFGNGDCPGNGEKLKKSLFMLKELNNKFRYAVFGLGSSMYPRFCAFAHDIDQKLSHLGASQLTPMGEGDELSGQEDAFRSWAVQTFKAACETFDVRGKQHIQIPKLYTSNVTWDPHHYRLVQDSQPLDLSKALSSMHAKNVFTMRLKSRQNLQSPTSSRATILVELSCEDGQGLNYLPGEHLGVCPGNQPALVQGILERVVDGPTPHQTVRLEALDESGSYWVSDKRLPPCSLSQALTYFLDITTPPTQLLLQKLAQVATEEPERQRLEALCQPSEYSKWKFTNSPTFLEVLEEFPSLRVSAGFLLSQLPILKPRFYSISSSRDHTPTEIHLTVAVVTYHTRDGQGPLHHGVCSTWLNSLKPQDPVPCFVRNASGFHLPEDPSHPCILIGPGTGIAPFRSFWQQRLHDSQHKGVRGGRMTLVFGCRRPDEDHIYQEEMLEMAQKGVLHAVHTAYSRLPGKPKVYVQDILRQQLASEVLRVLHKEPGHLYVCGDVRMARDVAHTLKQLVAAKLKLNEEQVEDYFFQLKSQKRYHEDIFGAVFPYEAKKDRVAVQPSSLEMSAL
Procedure: (§1) The NOS1 and NOS2 IC50's and Kd's for each NOS inhibitor were determined using purified recombinant full-length human NOS1 and NOS2. The cLogP value for each NOS inhibitor was determined using the CLOGP computer program (BioByte, Claremont, Calif.). […] Linear regression was used to examine the correlation between the IC50, Kd and cLogP values and ED50 values.
(§2) We determined the dissociation constant for NOS inhibitor binding (Kd) to purified recombinant and NOS2.

purified human NOS1 = target: T2, purified human NOS1 (Homo sapiens, UniProt P29475); test: Inhibition of purified NOS1 enzyme activity; type: biochemical; details: mean ± SEM, N = 3
T2 construct: determined using purified recombinant full-length human NOS1 and NOS2
T2 sequence (P29475 whole entry): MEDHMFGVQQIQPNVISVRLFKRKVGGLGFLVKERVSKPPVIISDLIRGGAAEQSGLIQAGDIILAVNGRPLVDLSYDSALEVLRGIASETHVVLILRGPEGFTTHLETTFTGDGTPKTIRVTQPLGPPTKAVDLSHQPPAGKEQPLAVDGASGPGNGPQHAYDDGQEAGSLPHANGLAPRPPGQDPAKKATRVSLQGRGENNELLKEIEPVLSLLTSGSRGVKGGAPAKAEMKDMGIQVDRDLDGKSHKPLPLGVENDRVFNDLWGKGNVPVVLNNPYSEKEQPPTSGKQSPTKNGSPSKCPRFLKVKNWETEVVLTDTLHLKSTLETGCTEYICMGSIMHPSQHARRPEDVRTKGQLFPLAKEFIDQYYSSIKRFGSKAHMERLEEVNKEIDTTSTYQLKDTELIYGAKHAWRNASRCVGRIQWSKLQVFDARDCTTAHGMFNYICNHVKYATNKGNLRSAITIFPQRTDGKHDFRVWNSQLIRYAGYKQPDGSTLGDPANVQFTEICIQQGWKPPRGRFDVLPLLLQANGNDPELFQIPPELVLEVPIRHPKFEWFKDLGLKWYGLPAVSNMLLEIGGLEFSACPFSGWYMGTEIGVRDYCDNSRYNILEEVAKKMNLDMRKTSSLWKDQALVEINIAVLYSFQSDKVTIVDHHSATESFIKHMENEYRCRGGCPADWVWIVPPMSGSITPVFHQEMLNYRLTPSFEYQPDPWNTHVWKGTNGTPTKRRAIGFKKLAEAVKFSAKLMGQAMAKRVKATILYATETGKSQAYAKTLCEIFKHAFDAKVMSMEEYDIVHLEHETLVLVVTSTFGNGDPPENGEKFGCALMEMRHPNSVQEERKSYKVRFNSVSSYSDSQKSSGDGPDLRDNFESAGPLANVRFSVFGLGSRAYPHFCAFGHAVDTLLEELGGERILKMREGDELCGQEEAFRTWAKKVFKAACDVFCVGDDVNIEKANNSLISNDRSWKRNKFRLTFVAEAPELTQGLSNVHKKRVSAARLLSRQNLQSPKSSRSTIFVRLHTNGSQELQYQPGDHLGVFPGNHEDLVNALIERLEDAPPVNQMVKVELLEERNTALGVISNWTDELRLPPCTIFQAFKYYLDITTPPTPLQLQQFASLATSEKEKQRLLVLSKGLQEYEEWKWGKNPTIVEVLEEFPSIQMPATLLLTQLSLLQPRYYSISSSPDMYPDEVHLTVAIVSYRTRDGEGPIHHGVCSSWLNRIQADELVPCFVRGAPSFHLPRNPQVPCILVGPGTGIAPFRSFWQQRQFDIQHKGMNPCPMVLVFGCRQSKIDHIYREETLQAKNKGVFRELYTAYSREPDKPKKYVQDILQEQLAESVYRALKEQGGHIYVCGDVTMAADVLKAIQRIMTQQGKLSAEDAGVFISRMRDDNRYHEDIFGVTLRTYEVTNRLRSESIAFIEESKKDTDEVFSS
Procedure: as §1, §2

[3] = 50 mg/kg in mice; cited from earlier work
[4] = target: T3, purified recombinant human NOS2 oxygenase domain (Homo sapiens, UniProt P35228); test: NOS inhibitor binding (Kd) to NOS2
T3 construct: purified recombinant human NOS2 oxygenase domain
T3 sequence (P35228 1-504 limits assumed): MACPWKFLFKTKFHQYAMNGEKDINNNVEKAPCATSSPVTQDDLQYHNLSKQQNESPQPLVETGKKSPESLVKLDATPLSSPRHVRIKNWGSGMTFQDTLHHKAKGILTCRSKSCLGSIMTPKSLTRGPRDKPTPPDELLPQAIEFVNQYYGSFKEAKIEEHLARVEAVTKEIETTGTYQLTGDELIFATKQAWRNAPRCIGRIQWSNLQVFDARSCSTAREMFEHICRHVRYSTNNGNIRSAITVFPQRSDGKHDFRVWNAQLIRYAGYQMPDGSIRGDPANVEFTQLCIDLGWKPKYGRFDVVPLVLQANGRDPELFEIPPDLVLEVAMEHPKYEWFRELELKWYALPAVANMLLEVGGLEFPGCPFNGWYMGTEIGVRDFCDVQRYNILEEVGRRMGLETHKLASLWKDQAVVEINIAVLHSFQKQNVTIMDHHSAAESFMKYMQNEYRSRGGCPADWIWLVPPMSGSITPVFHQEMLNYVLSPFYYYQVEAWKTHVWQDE
Procedure: […] The cLogP value for each NOS inhibitor was determined using the CLOGP computer program (BioByte, Claremont, Calif.). […] Linear regression was used to examine the correlation between the IC50, Kd and cLogP values and ED50 values.
as §2

CLL cells [5] = test: CLL cell apoptosis by Annexin V binding; type: cell-based, human
Procedure: Annexin V binding to CLL cells increased after CLL cell co-culture for 2-6 h.

CLL cell caspase-3 = CLL cell caspase-3 enzyme activity after culture with AR-R17477; type: cell-based, human; details: for Mean caspase-3 activity: 4 h culture, N = 3
[6] = target: T4, purified recombinant rat NOS1 oxygenase domain (Rattus norvegicus, UniProt P29476); test: NOS inhibitor binding (Kd) to NOS1
T4 construct: purified recombinant rat NOS1 oxygenase domain
T4 sequence (P29476 1-720 limits assumed): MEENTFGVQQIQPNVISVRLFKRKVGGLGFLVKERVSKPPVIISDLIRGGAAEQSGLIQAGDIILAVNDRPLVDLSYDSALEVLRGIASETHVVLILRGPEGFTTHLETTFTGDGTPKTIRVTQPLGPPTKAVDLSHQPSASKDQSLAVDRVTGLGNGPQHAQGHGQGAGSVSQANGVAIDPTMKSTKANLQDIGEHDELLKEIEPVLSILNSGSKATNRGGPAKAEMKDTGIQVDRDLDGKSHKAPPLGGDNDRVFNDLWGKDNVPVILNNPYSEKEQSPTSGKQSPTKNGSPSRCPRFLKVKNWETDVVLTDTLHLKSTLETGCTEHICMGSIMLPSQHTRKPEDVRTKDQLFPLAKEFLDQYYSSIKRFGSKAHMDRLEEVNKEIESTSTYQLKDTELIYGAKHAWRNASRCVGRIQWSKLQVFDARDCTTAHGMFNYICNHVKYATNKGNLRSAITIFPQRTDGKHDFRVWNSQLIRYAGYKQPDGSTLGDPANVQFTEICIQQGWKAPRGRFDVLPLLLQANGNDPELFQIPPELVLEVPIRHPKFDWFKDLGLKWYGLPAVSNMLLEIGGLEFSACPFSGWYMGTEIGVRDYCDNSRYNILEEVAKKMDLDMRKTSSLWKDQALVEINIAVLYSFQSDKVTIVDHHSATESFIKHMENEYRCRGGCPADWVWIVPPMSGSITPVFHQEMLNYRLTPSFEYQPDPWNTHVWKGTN

[7] = tested on: HL-60 myeloblastic leukemia cells; test: NO drugs on growth of HL-60 myeloblastic leukemia cells; type: cell-based, human; details: NO delivered from the drug
Text: While studying NO and macrophages progressed in the late 1980s, we hypothesized that NO produced in the BM (bone marrow) would be a modulator of normal and leukemic hematopoiesis. […] The differentiated cells were vacuolated, and had increased expression of nonspecific esterase, CD11b, and CD14.

normal human BM cells = test: NO drugs on colony formation of normal human BM cells; type: cell-based; details: for Development of marrow colonies: methylcellulose with erythropoietin and colony stimulating factors
Procedure: The effects of NO on the growth and differentiation of normal human BM cells were analyzed (Reference 85). We felt that normal hematopoietic cells, like malignant hematopoietic cells, would be affected by NO. […] NO reduced formation of BFU-E (burst forming unit-erythroid), CFU-E, CFU-GM (colony forming unit-granulocyte/macrophage), and CFU-M (colony forming unit-macrophage). […] In retrospect, we think that the increase in CFU-GM by NO from SNP may be due to alterations in apoptosis secondary to changes in bcl-2 or caspases. None of the noted inhibitions were related to cGMP (cyclic-guanosine monophosphate).

[8] = MTS assay, CLL cell samples from different subjects

O=[N+]([O-])c1cccc2c(Br)n[nH]c12 [3-Bromo-7-NI, 3-Bromo-7-nitroindazole]
EC50 (CLL cells [1]; Homo sapiens, CLL cell): 225 ± 20 µM

COc1cccc2c1C(=O)c1c(O)c3c(c(O)c1C2=O)C[C@@](O)(C(=O)CO)C[C@@H]3O[C@H]1C[C@H](N)[C@H](O)[C@H](C)O1 [doxorubicin]
NO / DETA-NO interaction with the agent's activity on CLL cells [2]: did not enhance the activity

NCCNCCN [DETA]
Effect on CLL cell apoptosis and death [2]: had no effects

CSC(=N)N [S-Methyl ITU, S-methylisothiourea sulfate]
EC50 (CLL cells [1]; [8]): 3080 ± 423 µM

N=C(N)NCCSSCCNC(=N)N [GED, Guanidinoethyldisulfide 2H2CO3]
IC50 (purified human NOS2): 50 ± 9.5 µM | EC50 (CLL cells [1]; Homo sapiens, CLL cell): 317 ± 77 µM | IC50 (purified human NOS1): 280 ± 80 µM

CCc1c2c(nc3ccc(O)cc13)-c1cc3c(c(=O)n1C2)COC(=O)[C@]3(O)CC [SN-38]
NO / DETA-NO interaction with the agent's activity on CLL cells [2]: did not enhance the activity

N=C(N)SCCc1ccc(CCSC(=N)N)cc1 [1,4 PB-ITU, S,S′-(1,4-Phenylene-bis(1,2-ethanediyl))bis-isothiourea 2HBr]
EC50 (CLL cells [1]; Homo sapiens, CLL cell): 321 ± 38.9 µM

CC1CCN=C(N)S1 (centres unmarked) [AMT, 2-Amino-5,6-dihydro-6-methyl-4H-1.3-thiazine HCl]
IC50 (purified human NOS2): 0.054 ± 0.001 µM | IC50 (purified human NOS1): 0.092 ± 0.002 µM

CC(=N)NCc1cccc(CN)c1 [1400W, N-(3-(Aminomethyl)benzyl)acetamidine 2HCl]
EC50 (CLL cells [1]; Homo sapiens, CLL cell): 8240 ± 1880 µM

Nc1ccn([C@@H]2O[C@H](CO)[C@@H](O)C2(F)F)c(=O)n1 [gemcitabine]
NO / DETA-NO interaction with the agent's activity on CLL cells [2]: did not enhance the activity

O=c1[nH]cc(F)c(=O)[nH]1 [5-fluorouracil]
NO / DETA-NO interaction with the agent's activity on CLL cells [2]: did not enhance the activity

CC1(C)N([O])C(c2ccc(C(=O)O)cc2)=[N+]([O-])C1(C)C [carboxy-PTIO]
Cytotoxicity for CLL cells (in words) (CLL cells [1]): not cytotoxic

N=C(N)SCCCN [S-Aminopropyl ITU, S-(3-Aminopropyl)isothiourea 2HBr]
IC50 (purified human NOS2): 1.9 ± 0.2 µM | EC50 (CLL cells [1]; Homo sapiens, CLL cell): 112 ± 45.5 µM | IC50 (purified human NOS1): 3.8 ± 0.5 µM

FC(F)(F)c1ccccc1-n1ccnc1 [TRIM, 1-(2-Trifluoromethylphenyl)imidazole]
EC50 (CLL cells [1]; Homo sapiens, CLL cell): 421 ± 61 µM | Effect on anxiety and depression [3]: effective at reducing anxiety and depression | Side effects [3]: mild motor incoordination

CC(=N)NCCSCC[C@H](N)C(=O)O [GW274150, (S)-2-Amino-(1-iminoethylamino)-5-thioheptanoic acid]
IC50 (purified human NOS2): 1.8 ± 0.3 µM | IC50 (purified human NOS1): 140 ± 15 µM

Mercaptoethylguanidine sodium succinate [MEG]
EC50 (CLL cells [1]; [8]): 181 ± 36.4 µM

CCCNC(=N)NCCC[C@H](N)C(=O)O [N-Propyl-L-arginine, N^5-[Imino(propylamino)methyl]-L-ornithine]
Kd [4]: 7 µM | IC50 (purified human NOS2): 146 ± 36 µM

O=[N+]([O-])c1cccc2cn[nH]c12 [7-NI, 7-Nitroindazole]
IC50 (purified human NOS2): 45 ± 5.9 µM | EC50 (CLL cells [1]; Homo sapiens, CLL cell): 200 ± 29 µM | Effect on anxiety and depression [3]: effective at reducing anxiety and depression | Side effects [3]: mild motor incoordination | IC50 (purified human NOS1): 72 ± 16 µM

O=C(O)CCCc1ccc(N(CCCl)CCCl)cc1 [chlorambucil]
NO / DETA-NO interaction with the agent's activity on CLL cells [2]: did not enhance the activity

Cl.Cl.N=C(Nc1ccc(CCNCc2cccc(Cl)c2)cc1)c1cccs1 [AR-R17477, N-(4-(2-((3-Chlorophenylmethyl)amino)ethyl)phenyl)-2-thiophecarboxamidine dihydrochloride]
CLL cell apoptosis (CLL cells [5]): induced CLL cell apoptosis | Annexin V binding to CLL cells (CLL cells [5]; co-culture for 2-6 h): increased | ED50 ranking, FIG. 10 (CLL cells [1]; cytotoxicity for CLL cells in vitro): lowest ED50 | EC50 (CLL cells [1]; [8]): 7 ± 0.7 µM | Mean caspase-3 activity (CLL cell caspase-3; 5 μM): 9741 arbitrary fluorescence units | Mean caspase-3 activity (CLL cell caspase-3; 10 μM): 7474 arbitrary fluorescence units | Mean caspase-3 activity (CLL cell caspase-3; 20 μM): 8074 arbitrary fluorescence units | CLL cell caspase-3 enzyme activity (time course) (CLL cell caspase-3; co-culture for 4 to 19 h): increased | CLL cell caspase-3 enzyme activity (concentration dependence) (CLL cell caspase-3; various concentrations, 4 h): dose-dependent increase

CCSC(=N)Nc1ccc(C(F)(F)F)cc1 [ETPI, S-Ethyl-N-[4-(trifluoromethyl)phenyl]isothiourea HCl]
Kd [4]: 0.5 µM | Kd [6]: 0.1 µM | IC50 (purified human NOS2): 1500 ± 240 µM | EC50 (CLL cells [1]; Homo sapiens, CLL cell): 129 ± 20 µM | IC50 (purified human NOS1): 7.8 ± 2.5 µM

[NH-]c1c[n+](N2CCOCC2)no1 [SIN-1]
Growth of HL-60 cells [7]: potently inhibited the growth | Development of marrow colonies (normal human BM cells): inhibited development of marrow colonies

COC(=O)[C@@H](N)CCCNC(N)=N[N+](=O)[O-] [L-NAME, N^G-Nitro-L-arginine-methyl ester HCl]
Kd [4]: 0.6 µM | Kd [6]: 0.5 µM | IC50 (purified human NOS2): 17 ± 1.5 µM | EC50 (CLL cells [1]; Homo sapiens, CLL cell): 7220 ± 1300 µM | IC50 (purified human NOS1): 0.89 ± 0.06 µM

C/C1=C2/[N-][C@H]([C@H](CC(N)=O)[C@@]2(C)CCC(=O)NC[C@@H](C)OP(=O)([O-])O[C@H]2[C@@H](O)[C@@H](n3cnc4cc(C)c(C)cc43)O[C@@H]2CO)[C@]2(C)N=C(/C(C)=C3N=C(/C=C4N=C1[C@@H](CCC(N)=O)C\4(C)C)[C@@H](CCC(N)=O)[C@]\3(C)CC(N)=O)[C@@H](CCC(N)=O)[C@]2(C)CC(N)=O.[Co+3].[OH-] [hydroxycobalamin]
Cytotoxicity for CLL cells (in words) (CLL cells [1]): not cytotoxic

N=C(NCCC[C@H](N)CNCCN)N[N+](=O)[O-] [NAAANG, (4S)-N-(4-Amino-5[aminoethyl]aminopentyl)-N′-nitroguanidine 3TFA]
EC50 (CLL cells [1]; Homo sapiens, CLL cell): 5230 ± 3200 µM

N=C(N)SCCc1cccc(CCSC(=N)N)c1 [1,3 PB-ITU, S,S′-(1,3-Phenylene-bis(1,2-ethanediyl))bis-isothiourea 2HBr]
IC50 (purified human NOS2): 1.6 ± 0.3 µM | EC50 (CLL cells [1]; Homo sapiens, CLL cell): 293 ± 26.5 µM | IC50 (purified human NOS1): 4.7 ± 0.8 µM

CC(=N)NCCCC[C@H](N)C(=O)O [L-NIL, L-N^6-(1-Iminoethyl)-lysine]
Kd [4]: 0.5 µM | Kd [6]: 0.7 µM | IC50 (purified human NOS2): 2.1 µM | IC50 (purified human NOS1): 47 ± 1.2 µM

S-nitrosoacetylpenicillamine [SNAP]
Growth of HL-60 cells [7]: potently inhibited the growth | Erythroid and myeloid colonies (normal human BM cells; isolated CD34+ cells): inhibited | Development of marrow colonies (normal human BM cells): inhibited development of marrow colonies

COc1nc(N)nc2c1ncn2[C@@H]1O[C@H](CO)[C@@H](O)[C@@H]1O [506U78, 2-amino-9-β-D-6-methoxy araguanine]
NO / DETA-NO interaction with the agent's activity on CLL cells [2]: synergized

CCSC(=N)N [S-Ethyl ITU, S-Ethylisothiourea HBr]
IC50 (purified human NOS2): 1200 ± 290 µM | IC50 (purified human NOS1): 7.7 ± 1.8 µM
